Test results as given in patent US20250051355A1, “COMPOUNDS, COMPOSITIONS, AND METHODS” (ACONCAGUA BIO, INC., priority 2023, published 2025).

Tests used:
Assay type in all cases: cell-based
[1] = target: T1, human calcitonin receptor (CTR) and RAMP3 (AMY3) (Homo sapiens, UniProt O60896+P30988); experiment: Amylin Receptor cAMP Assay I; details: COS-7/AMY3 cells, cAMP Hi-range Kit, read-out: Amylin Receptor cAMP Stimulation Activity: EC50
Excerpt: Amylin Receptor cAMP Assay I
AMYRs are heterodimers of the class B calcitonin (CT) G-protein-coupled receptor (CTR) and receptor activity-modifying proteins (RAMPs). All three RAMPs can interact with the CTR and form AMY1, AMY2, AMY3 with RAMP1, RAMP2 and RAMP3, respectively. Like other class B1 GPCRs, the CT receptor family is canonically coupled to Gs-mediated cAMP production, and measurement of cAMP accumulation has been the primary assay used to determine peptide selectivity and potency.
To optimize functional activity directed toward Gas coupling, COS-7 cells were stably transfected with human calcitonin receptor (CTR) and RAMP3, simultaneously. 100×concentration of compound working solutions were prepared (Agilent Technologies Bravo) with 4-fold serial dilution in 384-well Echo LDV plate (Labcyte, Cat #LP-0200). 100 nL/well 100× concentration of compound working solutions were moved to 384-well white low volume plate (Greiner, Cat #784075) using Labcyte ECHO550. 1×10^5 cells/mL COS-7/CTR or COS-7/AMY3 (HD Biosciences) cell suspensions prepared with assay buffer [DPBS containing 0.5 mM IBMX (Sigma, Cat #15879) and 0.1% BSA (GENVIEW, Cat #FAO16-100 g)], 10 μL cell suspensions were added to each well of previous generated assay plate which already contains 100 nL compound at 100× concentration using ThermoFisher Multidrop Combi (1000 cells/well). Seal the plate and incubate at 37° C. with 5% CO2 for 30 min.
After incubation, the cAMP assay signal was generated using cAMP Hi-range Kit (Cisbio). 5 μL cAMP-d2 working solution was added to each well, followed by 5 μL Anti-cAMP antibody-cryptate working solution which was added to each well using ThermoFisher Multidrop Combi. The samples were then incubated at room temperature for 1 hour protected from light. the fluorescence was read at 665 and 615 nm with Reader PerkinElmer EnVision.

[2] = target: T2, human calcitonin receptor (CTR) (Homo sapiens, UniProt P30988); experiment: Calcitonin receptor (CTR) cAMP Assay; details: COS7-human CTR Clone #2 cells, cAMP dynamic 2 kit; read-out: Calcitonin Receptor cAMP Stimulation Activity: EC50
T2 construct: expressed in transfected cells; host or cells: COS-7 (COS7-human CTR Clone #2)
T2 sequence (P30988 25-474): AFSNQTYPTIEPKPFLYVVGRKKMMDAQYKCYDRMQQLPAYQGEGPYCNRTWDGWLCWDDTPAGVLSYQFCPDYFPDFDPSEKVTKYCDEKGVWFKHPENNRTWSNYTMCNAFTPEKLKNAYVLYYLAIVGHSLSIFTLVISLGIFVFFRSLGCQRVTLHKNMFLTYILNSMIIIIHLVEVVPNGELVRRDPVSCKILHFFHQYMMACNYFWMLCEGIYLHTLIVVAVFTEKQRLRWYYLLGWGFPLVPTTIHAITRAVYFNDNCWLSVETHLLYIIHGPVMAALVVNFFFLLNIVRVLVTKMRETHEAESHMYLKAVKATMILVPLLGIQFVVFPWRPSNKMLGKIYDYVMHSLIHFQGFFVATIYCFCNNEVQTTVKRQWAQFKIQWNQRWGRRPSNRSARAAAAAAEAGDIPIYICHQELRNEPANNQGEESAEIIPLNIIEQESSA
Method in brief: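 COS-7 cells stably expressing human CTR (2000 cells/well) treated with 4-fold serially diluted compounds in HBSS/20 mM HEPES/0.5 mM IBMX/0.1% casein, 30 min at 37° C. cAMP quantified by HTRF (cAMP-d2 plus anti-cAMP cryptate, 1 h RT), fluorescence read at 665 and 615 nm.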

[3] = target: T1, human calcitonin receptor (CTR) and RAMP3 (AMY3); experiment: Amylin Receptor cAMP Assay II; details: COS-7/AMY3 cells, cAMP dynamic 2 kit, read-out: Amylin Receptor cAMP Stimulation Activity: EC50
Method in brief: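 COS-7 cells stably co-expressing human CTR and RAMP3 (AMY3) were treated with 4-fold serially diluted compounds at 2000 cells/well in HBSS with 20 mM HEPES, 0.5 mM IBMX and 0.1% casein for 30 min at 37 °C. cAMP was measured by HTRF (cAMP-d2 plus anti-cAMP cryptate, 1 h at RT) with reads at 665/615 nm.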

T1 sequence (O60896 24-148, one chain of several): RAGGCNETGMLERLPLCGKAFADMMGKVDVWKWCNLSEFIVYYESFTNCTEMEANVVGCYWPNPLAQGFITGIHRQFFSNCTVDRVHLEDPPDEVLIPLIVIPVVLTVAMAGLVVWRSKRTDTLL

Compound | EC50 [1] | also measured
CO[C@@H]1C[C@@H](NC(=O)c2ccc(-c3c4c(nc(CCc5ccc(F)cc5)c3-c3nnc(C)o3)[C@@H]3CCCN3C4=O)s2)c2ccccc21 (stereo in doubt) [Compound 48] | 321 nM | 
Cc1ccc(CCc2nc3c(c(-c4ccc(C(=O)NCc5ccc(F)c(F)c5)s4)c2-c2nnc(C)o2)C(=O)N2CCC[C@@H]32)nc1 [Compound 6, (S)—N-(3,4-difluorobenzyl)-5-(3-(5-methyl-1,3,4-oxadiazol-2-yl)-2-(2-(5-methylpyridin-2-yl)ethyl)-5-oxo-7,8,9,9a-tetrahydro-5H-pyrido[2,3-a]pyrrolizin-4-yl)thiophene-2-carboxamide] | 674 nM | 
Cc1nnc(-c2c(CCc3ccc(F)cc3)nc3c(c2-c2ccc(C(=O)NC4CC(O)c5ccccc54)s2)C(=O)N2CCC[C@@H]32)o1 (stereo partly drawn) [Compound 11, 5-((S)-2-(4-fluorophenethyl)-3-(5-methyl-1,3,4-oxadiazol-2-yl)-5-oxo-7,8,9,9a-tetrahydro-5H-pyrido[2,3-a]pyrrolizin-4-yl)-N-(3-hydroxy-2,3-dihydro-1H-inden-1-yl)thiophene-2-carboxamide] | 48.1 nM | 
Cc1nnc(-c2c(CCc3ccc(F)cc3)nc3c(c2-c2ccc(C(=O)NCc4cncc(F)c4)s2)C(=O)N2CCC[C@@H]32)o1 [Compound 12, (S)-5-(2-(4-fluorophenethyl)-3-(5-methyl-1,3,4-oxadiazol-2-yl)-5-oxo-7,8,9,9a-tetrahydro-5H-pyrido[2,3-a]pyrrolizin-4-yl)-N-((5-fluoropyridin-3-yl)methyl)thiophene-2-carboxamide] | 113 nM | 
COc1cccc2c1CC[C@H]2NC(=O)c1ccc(-c2c3c(nc(CCc4ccc(F)cc4)c2-c2nnc(C)o2)[C@@H]2CCCN2C3=O)s1 [Compound 13, N—[(R)-4-methoxy-1-indanyl]-5-((2S)-11-[2-(p-fluorophenyl)ethyl]-10-(5-methyl-1,3,4-oxadiazol-2-yl)-7-oxo-6,12-diazatricyclo[6.4.0.0^2,6]dodeca-1(12),8,10-trien-9-yl}-2-thenamide] | 29.7 nM | 
Cc1cnc(-c2c(CCc3ccc(F)cc3)nc3c(c2-c2ccc(C(=O)NCc4ccc(F)c(F)c4)s2)C(=O)N2CCC[C@@H]32)o1 [Compound 14, N-(3,4-difluorophenyl)methyl-5-{(2S)-11-[2-(p-fluorophenyl)ethyl]-10-(5-methyl-1,3-oxazol-2-yl)-7-oxo-6,12-diazatricyclo[6.4.0.0^2,6]dodeca-1(8),9,11-trien-9-yl)-2-thenamide] | 12.6 nM | 
Cc1nnc(-c2c(CCc3ccc(F)cc3)nc3c(c2-c2ccc(C(=O)N[C@@H]4CCc5ccccc54)s2)C(=O)NC[C@H]3C(C)C)o1 [Compound 16, N—((R)-2,3-dihydro-1H-inden-1-yl)-5-((R)-2-(4-fluorophenethyl)-8-isopropyl-3-(5-methyl-1,3,4-oxadiazol-2-yl)-5-oxo-5,6,7,8-tetrahydro-1,6-naphthyridin-4-yl)thiophene-2-carboxamide] | 2370 nM | 
CC(C)c1nnc(-c2c(CCc3ccc(F)cc3)nc3c(c2-c2ccc(C(=O)NCc4ccc(F)c(F)c4)s2)C(=O)N2CCC[C@@H]32)o1 [Compound 21] | 37 nM | 
Cc1ccc(CCc2nc3c(c(-c4ccc(C(=O)NCc5ccc(F)c(F)c5)s4)c2-c2nnc(C)o2)C(=O)N2CCC[C@@H]32)cn1 [Compound 22] | 1130 nM | 
Cc1nnc(-c2c(COC3CCCCC3)nc3c(c2-c2ccc(C(=O)NCc4ccc(F)c(F)c4)s2)C(=O)N2CCC[C@@H]32)o1 [Compound 25] | 512 nM | 
Cc1nnc(-c2c(COC3CCOCC3)nc3c(c2-c2ccc(C(=O)NCc4ccc(F)c(F)c4)s2)C(=O)N2CCC[C@@H]32)o1 [Compound 26] | 1600 nM | 
Cc1nnc(-c2c(CCC3CCC(F)(F)CC3)nc3c(c2-c2ccc(C(=O)NCc4ccc(F)c(F)c4)s2)C(=O)N2CCC[C@@H]32)o1 [Compound 27] | 174 nM | 
Cc1nnc(-c2c(CCc3ccc(F)cc3)nc3c(c2-c2ccc(C(=O)N[C@@H]4CCc5ncccc54)s2)C(=O)N2CCC[C@@H]32)o1 [Compound 28] | 315 nM | 
CCc1nc2c(c(-c3ccc4c(c3)OC(C)(C)C(=O)N4Cc3ccc(F)cn3)c1-c1nnc(C)o1)C(=O)N1CC3CC21C3 [Compound 161, 7-[4-ethyl-5-(5-methyl-1,3,4-oxadiazol-2-yl)-8-oxo-3,9-diazatetracyclo[9.1.1.01, 0.2,1]trideca-2,4,6-trien-6-yl]-4-[(5-fluoro-2-pyridyl)methyl]-2,2-dimethyl-4H-1,4-benzoxazin-3(2H)-one] |  | EC50 [2]: 226 nM; EC50 [3]: 5380 nM

Further lines, with some results ahead:

EC50 [1] | Compound | also measured
63.5 nM | CO[C@H]1C[C@@H](NC(=O)c2ccc(-c3c4c(nc(CCc5ccc(F)cc5)c3-c3nnc(C)o3)[C@@H]3CCCN3C4=O)s2)c2ccccc21 (stereo in doubt) [Compound 30, N-[(1R,3S)-3-methoxy-1-indanyl]-5-{(2S,6R)-11-[2-(p-fluorophenyl)ethyl]-10-(5-methyl-1,3,4-oxadiazol-2-yl)-7-oxo-6,12-diazatricyclo[6.4.0^2,^6]dodeca-1(8),9,11-trien-9-yl}-2-thenamide] | 
70.2 nM | COc1cccc2c1CC[C@H]2NC(=O)c1ccc(-c2c3c(nc(CCc4ccc(F)cc4)c2-c2nnc(C)o2)[C@H](C(C)C)NC3=O)s1 [Compound 3, N—[(R)-4-methoxy-1-indanyl]-5-{(S)-5-[2-(p-fluorophenyl)ethyl]-3-isopropyl-6-(5-methyl-1,3,4-oxadiazol-2-yl)-1-oxo-2,4-diaza-7-indanyl)-2-thenamide] | 
67.5 nM | Cc1nnc(-c2c(CCc3ccccc3)nc3c(c2-c2ccc(C(=O)NCc4ccc(F)c(F)c4)s2)C(=O)N2CCC[C@@H]32)o1 [Compound 5, (S)—N-(3,4-difluorobenzyl)-5-(3-(5-methyl-1,3,4-oxadiazol-2-yl)-5-oxo-2-phenethyl-7,8,9,9a-tetrahydro-5H-pyrido[2,3-a]pyrrolizin-4-yl)thiophene-2-carboxamide] | 
3590 nM | Cc1nnc(-c2c(CCc3ccc(F)cn3)nc3c(c2-c2ccc(C(=O)NCc4ccc(F)c(F)c4)s2)C(=O)N2CCC[C@@H]32)o1 [Compound 8, (S)—N-(3,4-difluorobenzyl)-5-(2-(2-(5-fluoropyridin-2-yl)ethyl)-3-(5-methyl-1,3,4-oxadiazol-2-yl)-5-oxo-7,8,9,9a-tetrahydro-5H-pyrido[2,3-a]pyrrolizin-4-yl)thiophene-2-carboxamide] | 
66.7 nM | Cc1nnc(-c2c(CCc3ccc(F)cc3)nc3c(c2-c2ccc(C(=O)N[C@@H]4COc5ccccc54)s2)C(=O)N2CCC[C@@H]32)o1 [Compound 10, N—((S)-2,3-dihydrobenzofuran-3-yl)-5-((S)-2-(4-fluorophenethyl)-3-(5-methyl-1,3,4-oxadiazol-2-yl)-5-oxo-7,8,9,9a-tetrahydro-5H-pyrido[2,3-a]pyrrolizin-4-yl)thiophene-2-carboxamide] | 
79 nM | Cc1nnc(-c2c(CCc3ccc(F)cc3)nc3c(c2-c2ccc(C(=O)NCc4ccc(F)c(F)c4)s2)C(=O)N2CCCC[C@@H]32)o1 [Compound 20] | 
80 nM | Cc1cnc(-c2c(CCc3ccc(F)cc3)nc3c(c2-c2ccc(C(=O)NCc4ccc(F)c(F)c4)s2)S(=O)(=O)N2CCC[C@@H]32)o1 [Compound 24] | 
